These results are taken from patent US8445469B2, “18-methyl-19-nor-17-pregn-4-ene-21,17-carbolactones, as well as pharmaceutical preparations that contain the latter” (Bayer Intellectual Property GmbH, priority 2004, dated 2013).

Each structure is given as a SMILES string.

The test deals with pregnancy maintenance (peripheral gestagenic activity). Put plainly: pregnancy maintenance test in ovariectomized rats. The class given is in vivo, rat. As to conditions: ovariectomized pregnant rats, subcutaneous once daily with estrone 5 μg/kg/day, day 8 to day 15 or 21. From the text: Executing the Pregnancy Maintenance Test in Rats:
In pregnant rats, removal of the corpora lutea or castration induces abortion. By exogenous supplying of progestins (gestagens) in combination with a suitable dose of estrogens, pregnancy can be maintained. The pregnancy maintenance test in ovariectomized rats serves to determine peripheral gestagenic activity of a compound.
Rats are paired up during the proestrus overnight. Mating is monitored on the morning of the following day by vaginal smear inspection. The presence of sperm is considered in this case as day 1 of the beginning of pregnancy. On day 8 of pregnancy, the animals are ovariectomized under ether anesthesia. […]
At the end of the test (day 15 or day 21), the animals are sacrificed under CO2 atmosphere, and live fetuses (fetuses with beating hearts) and implantation sites (early resorptions and dead fetuses including autolysis and atrophic placentas) in both uterine horns are counted. […] In uteri without fetuses or implantation sites, the number of nidation sites is determined by staining with 10% ammonium sulfide solution. The pregnancy maintenance rate is calculated as the quotient of the number of living fetuses and the total number of nidation sites (both resorbed and dead fetuses as well as nidation sites). […]

Consider `CCC12CCC3C4CCC(=O)C=C4C4CC4C3C1C1CC1C21CCC(=O)O1` (stereo not drawn) [compound 3a, 18-Methyl-6α,7α-15β,16β-dimethylene-3-oxo-19-nor-17-pregn-4-ene-21,17-carbolactone], for which the “pregnancy-maintaining dose (ED50)” value was found to be 120 µg/kg/day.
